The nature of series [1]: In-vitro elution of the API from the microparticles in PBS. It counts as physicochemical. As for the experimental part:
In-vitro elution of the API from the microparticles can be determined by adding a known amount of the microparticles to 5 mL phosphate buffered saline (PBS) solution at a pH 7.4, and maintaining a constant temperature of 37° C. At selected time intervals, a 2 mL aliquot can be withdrawn through a 0.4 μm filter for analysis; the amount of the aliquot withdrawn can be replenished with an equal amount of preheated PBS. The concentration of the API in the aliquot can be determined according to known methods such as HPLC. Sampling intervals can be adjusted to maintain drug concentration below sink conditions in the test vials.

Series [2] in a line: Epidural administration in canine subjects using fluoroscopically-guided injection. As to conditions: for drug released in-vivo (elution profile): procedure A1 microparticles. Type of series: in vivo, beagles. An excerpt: This exemplary approach is a modified version of that described by Cohen (vide supra). Male and female beagles can be acclimated and subjected to baseline neurologic and clinical chemistry examinations. Prior to treatment dogs can be anesthetized with propofol. The injection site can be shaved, and a 19-gauge epidural Touhy needle can be inserted at the L6-7 or L7-S1 interspace. A 22-gauge catheter can be threaded 8-10 cm to approximately the L2-L3 level. The position of the catheter can be verified by injection of contrast media under fluoroscopy. Two (2) mL of an aqueous suspension of microparticles, prepared according to procedure A1 above, can be injected over a period of about 2 minutes. After about 10 minutes the catheter can be removed. Before and after surgery, subject baseline measurements can be obtained, including, for example, temperature and specific behavioral measures (pain tolerance, reflex, mobility, etc.). Before injection, and every 2 days after injection for 84 days, heart rate, blood pressure in the tail, spinal reflexes, sensory and pain responses, proprioception, gait and movement, cranial nerve function, and fundoscopic examination data can be recorded to observe the safety of the injected pharmaceutical composition. Blood samples can be collected prior to injection, then at 1, 2, 4, 8, 24, and 72 hour intervals after injection, and every 7 days thereafter to analyze for the pharmaceutical agent and its metabolized forms. At scheduled intervals, necropsy and histopathology can be performed as described by Cohen, vide supra, in a sub-set of animals.
Without wishing to be bound by theory, pharmaceutical compositions of the type described herein are not expected to elicit any significant or appreciable degree of inflammatory response or cause necrosis. Histological examination may reveal the microparticles to be localized and agglomerated within the epidural space at the site of injection with no evidence of the presence of the injection vehicle after 2 about days. Contents of the treated epidural pocket can be recovered by dissection. The injected microparticles can be isolated from epidural tissue and assayed for drug concentration to determine an in-vivo elution profile. It can be reasonably expected that dexamethasone acetate will be released continuously over 12 weeks, with about 20% of the drug released in 3 days, 50% in 25 days, and 80% in 70 days, with complete microparticle polymer degradation in about 16 weeks.

Consider “9 alpha-fluoro-11-beta, 17-alpha, 21-trihydroxy-16 alpha-methylpregna-1,4-diene-3,20-dione 21-acetate [dexamethasone acetate]”, for which the “duration of continuous release in-vitro” value in series [1] is 12 weeks. For the same substance, the drug released in-vitro entry in series [1] (in 3 days) was “about 10%”; in series [1] (in 25 days), roughly 25%; in series [1] (in 70 days), roughly 40%. In addition, the “duration of continuous release in-vivo” value in series [2] was 12 weeks. Moreover, the “time to complete microparticle polymer degradation” value in series [2] is given as “about 16 weeks”. Besides, the entries for the “drug released in-vivo (elution profile)” value in series [2] (in 3 days), in series [2] (in 25 days) and in series [2] (in 70 days) were “about 20%”, roughly 50% and roughly 80%, respectively.
